# Read-outs that look alike come from different tables or passages of the source.
# Assays:
# MtMetAP1c = target: T1, MtMetAP1c (Mycobacterium tuberculosis, UniProt P9WK19); assay: MetAP enzyme inhibition, Morrison Ki (Met-AMC fluorescence); assay type: biochemical, M. tuberculosis; conditions: Morrison Ki method
# T1 construct: made in house
# Procedure: MetAP appears to serve a vital role in the co- or post-translational modification of proteins, making it essential for bacterial cell metabolism and survival. In this study, all enzymes, which were used for this study, including MtMetAP1c (M. tuberculosis), EfMetAP1a (E. faecalis), SpMetAP1a (S. pneumoniae) and HsMetAP1b (H. sapiens) enzymes, were expressed and purified in our lab as previously reported. All compounds prepared 10 mM stocks in DMSO and were used for enzyme inhibition studies. The concentration of each enzyme is adjusted such that they have similar reaction rates (HsMetAp1b, 1 µM; SpMetAP1a, 5 µM; EfMetAP1a, 1 µM; MtMetAP1c, 1 µM;) as reported earlier. All assays were performed in […] reaction containing 50 mM HEPES (pH 7.5 for SpMetAP1a and HsMetAP1b; 8.0 for EfMetAP1a, MtMetAP1c, […]), 150 mM NaCl, and CoCl2 (three molar equivalents of corresponding enzymes). The reaction was started by adding 50 μM L-Methionine 7-amido-4-methyl coumarin (Met-AMC) and continuously monitoring the fluorescence of released 7-amino-4-methyl coumarin (AMC) (380 nm excitation and 460 nm emission) in a microplate multimode reader (TECAN, Austria). The maximum percentage of inhibition against enzymes is calculated at […] compound concentration. […] The Ki values were determined according to the Morrison method using three different concentrations of substrates and ten different concentrations of the inhibitor. All experiments were performed in triplicate. GraphPad Prism version 8.0.0 (San Diego, CA, USA) was used to determine all the kinetic parameters.
# EfMetAP1a = EfMetAP1a (Enterococcus faecalis, UniProt Q832M5); assay: as above; assay type: biochemical; conditions: Morrison Ki method
# EfMetAP1a, sequence (Q832M5 entry or part of it): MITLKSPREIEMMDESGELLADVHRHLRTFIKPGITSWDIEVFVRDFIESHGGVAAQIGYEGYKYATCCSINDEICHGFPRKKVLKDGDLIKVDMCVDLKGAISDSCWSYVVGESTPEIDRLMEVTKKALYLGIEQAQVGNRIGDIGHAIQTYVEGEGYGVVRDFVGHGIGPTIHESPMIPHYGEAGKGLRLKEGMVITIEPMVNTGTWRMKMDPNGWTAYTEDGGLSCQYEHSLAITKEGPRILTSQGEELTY
# SpMetAP1a = SpMetAP1a (Streptococcus pneumoniae, UniProt Q8DPV1); assay: as above; assay type: biochemical; conditions: Morrison Ki method
# SpMetAP1a, sequence (Q8DPV1 entry or part of it): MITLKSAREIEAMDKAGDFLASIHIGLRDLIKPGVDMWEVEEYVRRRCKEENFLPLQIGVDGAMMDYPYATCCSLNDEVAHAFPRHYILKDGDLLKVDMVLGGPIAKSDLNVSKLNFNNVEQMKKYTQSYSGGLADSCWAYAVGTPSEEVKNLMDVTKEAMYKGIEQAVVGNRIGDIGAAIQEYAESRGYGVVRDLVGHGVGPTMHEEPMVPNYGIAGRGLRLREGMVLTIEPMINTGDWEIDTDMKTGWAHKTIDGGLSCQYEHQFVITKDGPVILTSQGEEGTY
# HsMetAP1b = target: T2, HsMetAP1b (Homo sapiens, UniProt P53582); assay: as above; assay type: biochemical, H. sapiens; conditions: Morrison Ki method
# T2 construct: made in house
# E. faecalis [1] = assay: Growth inhibition screening (broth dilution); assay type: cell-based, Enterococcus faecalis; conditions: for inhibition at 250 µg/mL: Enterococcus faecalis
# Procedure: (§1) In vitro screening of the compounds (PS1–14) was performed to assess the antibacterial activity against three Gram-positive (Staphylococcus aureus, Enterococcus faecalis and Bacillus subtilis,) and three Gram-negative (Pseudomonas aeruginosa, Klebsiella pneumonia and Escherichia coli) bacterial strains using the standard NCCLS broth dilution assay. The study’s standard drugs were ciprofloxacin (CIP) and ampicillin (AMP). Compounds were dissolved in a polar solvent (DMSO) and distributed into a 96-well plate in 200 µL of nutrient broth medium, with a final concentration of the compounds […] in each well. The bacterial cells (about 2.5 × 10^5 cells/mL) were inoculated into each well and incubated at 37 °C overnight. After incubation, the growth was measured by turbidity of the culture at 590 nm by spectrophotometer.
# B. subtilis [2] = assay: Growth inhibition screening (broth dilution); assay type: cell-based, Bacillus subtilis; conditions: for inhibition at 250 µg/mL: Bacillus subtilis
# Procedure: as §1
# S. aureus [3] = assay: Growth inhibition screening (broth dilution); assay type: cell-based, Staphylococcus aureus; conditions: for inhibition at 250 µg/mL: Staphylococcus aureus
# Procedure: as §1
# P. aeruginosa [4] = assay: Growth inhibition screening (broth dilution); assay type: cell-based, Pseudomonas aeruginosa; conditions: for inhibition at 250 µg/mL: Pseudomonas aeruginosa
# Procedure: as §1
# E. coli [5] = assay: Growth inhibition screening (broth dilution); assay type: cell-based, Escherichia coli; conditions: for inhibition at 250 µg/mL: Escherichia coli
# Procedure: as §1
# K. pneumoniae [6] = assay: Growth inhibition screening (broth dilution); assay type: cell-based, Klebsiella pneumonia; conditions: for inhibition at 250 µg/mL: Klebsiella pneumoniae
# Procedure: as §1
# E. faecalis [7] = assay: Minimum inhibitory concentration (broth dilution); assay type: cell-based; conditions: Enterococcus faecalis, alone
# B. subtilis [8] = assay: Minimum inhibitory concentration (broth dilution); assay type: cell-based; conditions: Bacillus subtilis, alone
# S. aureus [9] = assay: Minimum inhibitory concentration (broth dilution); assay type: cell-based; conditions: Staphylococcus aureus, alone
# P. aeruginosa [10] = assay: Minimum inhibitory concentration (broth dilution); assay type: cell-based; conditions: Pseudomonas aeruginosa, alone
# E. coli [11] = assay: Minimum inhibitory concentration (broth dilution); assay type: cell-based, Escherichia coli; conditions: Escherichia coli, alone, read-out: MIC
# K. pneumoniae [12] = assay: Minimum inhibitory concentration (broth dilution); assay type: cell-based, Klebsiella pneumonia; conditions: alone
# E. faecalis [13] = assay: Minimum bactericidal concentration; assay type: cell-based, Enterococcus faecalis; conditions: for MBC: Enterococcus faecalis
# B. subtilis [14] = assay: Minimum bactericidal concentration; assay type: cell-based, Bacillus subtilis; conditions: for MBC: Bacillus subtilis
# S. aureus [15] = assay: Minimum bactericidal concentration; assay type: cell-based, Staphylococcus aureus; conditions: for MBC: Staphylococcus aureus
# P. aeruginosa [16] = assay: Minimum bactericidal concentration; assay type: cell-based, Pseudomonas aeruginosa; conditions: for MBC: Pseudomonas aeruginosa
# E. coli [17] = assay: Minimum bactericidal concentration; assay type: cell-based, Escherichia coli; conditions: for MBC: Escherichia coli
# K. pneumoniae [18] = assay: Minimum bactericidal concentration; assay type: cell-based, Klebsiella pneumonia; conditions: for MBC: Klebsiella pneumoniae
# E. faecalis [19] = assay: Combination study with AMP or CIP
# B. subtilis [20] = assay: Combination study with AMP or CIP
# S. aureus [21] = assay: Combination study with AMP or CIP
# P. aeruginosa [22] = assay: Combination study with AMP or CIP
# E. coli [23] = assay: Combination study with AMP or CIP
# K. pneumoniae [24] = assay: Combination study with AMP or CIP
# [25] = Klebsiella pneumoniae, read-out: MIC
# T1 sequence (P9WK19 whole entry): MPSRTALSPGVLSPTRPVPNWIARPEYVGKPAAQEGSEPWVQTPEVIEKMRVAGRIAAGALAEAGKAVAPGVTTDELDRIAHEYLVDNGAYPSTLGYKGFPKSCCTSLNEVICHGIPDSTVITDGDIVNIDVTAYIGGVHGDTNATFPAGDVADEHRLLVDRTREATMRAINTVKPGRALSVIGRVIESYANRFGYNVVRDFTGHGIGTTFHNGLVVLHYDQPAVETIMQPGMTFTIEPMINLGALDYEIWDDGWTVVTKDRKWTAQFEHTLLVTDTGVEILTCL
SMILES,Ki (MtMetAP1c),Ki (EfMetAP1a),Ki (SpMetAP1a),Ki (HsMetAP1b),inhibition at 250 µg/mL (E. faecalis [1]),inhibition at 250 µg/mL (B. subtilis [2]),inhibition at 250 µg/mL (S. aureus [3]),inhibition at 250 µg/mL (P. aeruginosa [4]),inhibition at 250 µg/mL (E. coli [5]),inhibition at 250 µg/mL (K. pneumoniae [6]),MIC (E. faecalis [7]),MIC (B. subtilis [8]),MIC (S. aureus [9]),MIC (P. aeruginosa [10]),MIC (E. coli [11]),MIC (K. pneumoniae [12]; [25]),MBC/MIC Ratio (R*) (E. faecalis [13]),MBC (E. faecalis [13]),MBC/MIC Ratio (R*) (B. subtilis [14]),melting point,further results
"O=C1Nc2cc(Cl)ccc2/C1=N\NC(=O)c1cc(-c2cccc(Br)c2)n[nH]1 [PS3, (E)-3-(3-Bromophenyl)-N′-(6-Chloro-2-Oxoindolin-3-Ylidene)-1H-Pyrazole-5-Carbohydrazide]",2320 ± 280 nM,4630 ± 870 nM,1790 ± 80 nM,332000 ± 10900 nM,60%,89%,64%,90%,89%,97%,128 µg/mL,64 µg/mL,128 µg/mL,32 µg/mL,128 µg/mL,32 µg/mL,2,256 µg/mL,2,182 to 185 °C,MIC (K. pneumoniae [12]): 64 µg/mL; MBC (B. subtilis [14]): 128 µg/mL; MBC/MIC Ratio (R*) (S. aureus [15]): 1; MBC (S. aureus [15]): 128 µg/mL; MBC/MIC Ratio (R*) (P. aeruginosa [16]): 8; MBC (P. aeruginosa [16]): 256 µg/mL; MBC/MIC Ratio (R*) (E. coli [17]): 2; MBC (E. coli [17]): 256 µg/mL; MBC/MIC Ratio (R*) (K. pneumoniae [18]): 8; MBC (K. pneumoniae [18]): 512 µg/mL
"O=C1Nc2ccccc2/C1=N\NC(=O)c1cc(-c2cccc(Br)c2)n[nH]1 [PS1, (E)-3-(3-Bromophenyl)-N′-(2-Oxoindolin-3-YLIDENE)-1H-Pyrazole-5-Carbohydrazide]",2300 ± 270 nM,2650 ± 340 nM,4480 ± 120 nM,,12%,76%,73%,4%,40%,74%,,,,,,,,,,218 to 221 °C,
"COc1ccc2c(c1)/C(=N\NC(=O)c1cc(-c3cccc(Br)c3)n[nH]1)C(=O)N2 [PS11, (E)-3-(3-Bromophenyl)-N′-(5-Methoxy-2-Oxoindolin-3-Ylidene)-1H-Pyrazole-5-Carbohydrazide]",1610 ± 250 nM,2490 ± 310 nM,1360 ± 170 nM,15200 ± 3200 nM,≥ 94%,≥ 94%,≥ 94%,≥ 94%,≥ 94%,≥ 94%,32 µg/mL,> 256 µg/mL,128 µg/mL,32 µg/mL,128 µg/mL,32 µg/mL,1,32 µg/mL,2,245 to 248 °C,% Growth Inhibition at 250 µg/mL (E. faecalis [1]; listed as C00011): 100%; % Growth Inhibition at 250 µg/mL (B. subtilis [2]; listed as C00011): 100%; % Growth Inhibition at 250 µg/mL (S. aureus [3]; listed as C00011): 98%; % Growth Inhibition at 250 µg/mL (P. aeruginosa [4]; listed as C00011): 96%; % Growth Inhibition at 250 µg/mL (E. coli [5]; listed as C00011): 97%; % Growth Inhibition at 250 µg/mL (K. pneumoniae [6]; listed as C00011): 95%; MBC (B. subtilis [14]): 512 µg/mL; MBC/MIC Ratio (R*) (S. aureus [15]): >4; MBC (S. aureus [15]): > 512 µg/mL; MBC/MIC Ratio (R*) (P. aeruginosa [16]): 4; MBC (P. aeruginosa [16]): 128 µg/mL; MBC/MIC Ratio (R*) (E. coli [17]): 2; MBC (E. coli [17]): 256 µg/mL; MBC/MIC Ratio (R*) (K. pneumoniae [18]): 1; MBC (K. pneumoniae [18]): 32 µg/mL
"O=C(O)c1cn(C2CC2)c2cc(N3CCNCC3)c(F)cc2c1=O [CIP, Ciprofloxacin, reference compound]",,,,,100%,100%,100%,100%,100%,100%,1 µg/mL,,0.5 µg/mL,4 µg/mL,8 µg/mL,8 µg/mL,,,,,MIC in Combination (E. faecalis [19]; combination PS6 + CIP): 0.0625 µg/mL; MIC in Combination (E. faecalis [19]; combination PS9 + CIP): 1 µg/mL; MIC in Combination (B. subtilis [20]; combination PS6 + CIP): 0.0078 µg/mL; MIC in Combination (B. subtilis [20]; combination PS9 + CIP): 0.5 µg/mL; MIC in Combination (S. aureus [21]; combination PS6 + CIP): 0.25 µg/mL; MIC in Combination (S. aureus [21]; combination PS9 + CIP): 0.0156 µg/mL; MIC in Combination (P. aeruginosa [22]; combination PS6 + CIP): 0.5 µg/mL; MIC in Combination (P. aeruginosa [22]; combination PS9 + CIP): 0.125 µg/mL; MIC in Combination (E. coli [23]; combination PS6 + CIP): 0.5 µg/mL; MIC in Combination (E. coli [23]; combination PS9 + CIP): 0.03125 µg/mL; MIC in Combination (K. pneumoniae [24]; combination PS6 + CIP): 4 µg/mL; MIC in Combination (K. pneumoniae [24]; combination PS9 + CIP): 0.0078 µg/mL
"Cc1ccc2c(c1)/C(=N\NC(=O)c1cc(-c3cccc(Br)c3)n[nH]1)C(=O)N2 [PS2, (E)-3-(3-Bromophenyl)-N′-(5-Methyl-2-Oxoindolin-3-Ylidene)-1H-Pyrazole-5-Carbohydrazide]",4370 ± 140 nM,,2980 ± 180 nM,,10%,80%,66%,87%,86%,90%,,,,,,,,,,209 to 213 °C,

# From PMC9405123, “Design, Synthesis and Mechanistic Studies of Novel Isatin-Pyrazole Hydrazone Conjugates as Selective and Potent Bacterial MetAP Inhibitors” (Antibiotics, 2022)
